Measurements: US5861481A, “Peptide lung surfactants and therapeutic combinations” (Merrell Pharmaceuticals Inc., priority 1997, dated 1999)

System: adult rat lavaged lungs
Assay: Isolated rat lavaged lung model (pressure-volume curves)
Procedure: Preparation of Artificial Surfactants. For triplicate samples of the synthetic lung surfactants 75 mg of DPPC (L-α-dipalmitoylphosphatidylcholine; >99% pure; Avanti Polar Lipids, Birmingham, Ala.) in 1 ml of chloroform were dried under a stream of nitrogen and placed in a lyophilizer overnight to remove traces of organic solvent. To the dry lipid mixture were added 9 ml of water. The preparation was incubated for 1 hr at 45°-50° C. with occasional vortexing. Then, in some samples, […] of dry test peptide were added to the aqueous preparation. The preparations were mildly sonicated with and without peptide in a cleaning bath sonicator (Branson 1200) at 45°-50° C. for 2 h to promote peptide dispersion and peptide-lipid interactions. The resulting lipid-peptide mixtures were divided into three parts, lyophilized and stored at -20° C.
The experimental procedures for animal preparation, pressure-volume curve registration and lung lavage have been described by the rat lung model (Ikegami, et al., (1979) Pediatr. Res. 13, 777-780) as modified by McLean et al., Am. J. Physiol. (1992), L292-L300. Briefly, the lungs of adult rats were suspended in 0.9% saline at 37° C. were connected to a water manometer and an air-filled syringe by a T-tube. The deflation limb of a pressure-volume curve was recorded prior to lavage, after extensive lavage with 0.9% NaCl, 10 mM HEPES, pH 7.4 and after administration of surfactant mixtures in 2 ml of 0.9% NaCl, 10 mM HEPES buffer, pH 7.40. The deflation limbs of the pressure-volume (P-V) curves in adult rat lungs were analyzed by calculating the total lung capacities (% TLC) at 5 and 10 cm H2 O pressure (PC5 and PC10). The per cent of total lung capacities at 5 and 10 cm of H2 O (PC5 and PC10) were measured after addition of the synthetic lung surfactants to adult rat lavaged lungs at a dose of 25 mg of lipid (32 umoles) and 1 mg of peptide. Restorations are based on PC5. […] Comparisons were based on restoration,i.e. for PC5, ([…])×100%/(PC5.sbsb.(sufficient) -PC5.sbsb.(deficient)) and made by one-way analysis of variance using the GLM procedure with specific contrasts of the means (SAS Institute Inc., Cary, N.C.).
References, consisting of DPPC alone and dog lung surfactant, respectively,were employed as reference standards: Reference I was prepared as follows. DPPC was purchased from Avanti Polar Lipids. 25 mg of DPPC in chloroform was dried under a stream of nitrogen and lyophilized to remove traces of organic solvent. To the dry lipid mixture was added 3 ml of water. The preparation was incubated at 45° C. for 1 hour with ultrasonication in a bath sonicator. The lipid was lyophilized, stored at 4° C. for up to one week and mixed with 9 ml of 0.9% NaCl, 20 mM HEPES buffer, pH 7.40. […]

[1] = deflation limb of P-V curve, adult rat lavaged lungs, dose 25 mg lipid and 1 mg peptide, mean ± S.E.

For `CCCCCCCCCCCCCCCC(=O)OC[C@H](COP(=O)([O-])OCC[N+](C)(C)C)OC(=O)CCCCCCCCCCCCCCC` [Reference I, L-α-dipalmitoylphosphatidylcholine], the “effect on improving the compliance of the rat lung” value (adult rat lung model, stated in words) was “no effect”, the “Restoration (%)” value (based on PC5 relative to sufficient and deficient lungs, mean ± S.E.) was -11 ± 8% and the “PC5 (% TLC), per cent of total lung capacity at 5 cm H2O” value [1] was 13 ± 1 % TLC. For the same compound, the “PC10 (% TLC), per cent of total lung capacity at 10 cm H2O” value [1] was 31 ± 2 % TLC.
